ChEMBL document CHEMBL4000174, “Synthesis and antitumor activity of novel substituted uracil-1'(N)-acetic acid ester derivatives of 20(S)-camptothecins” (Eur J Med Chem, 2017)
Activity calls are given as the source filed them. No cut-off for these calls is given here.

What was measured:
[1] = tested on: Bel-7402; assay: Antiproliferative activity against human Bel7402 cells after 96 hrs by MTT assay; format: functional, cell-based; details: Bel-7402, 96 h
[2] = tested on: BGC-823; assay: Antiproliferative activity against human BGC823 cells after 96 hrs by MTT assay; format: functional, cell-based; details: BGC-823, 96 h
[3] = tested on: HCT-8; assay: Antiproliferative activity against human HCT8 cells after 96 hrs by MTT assay; format: functional, cell-based; details: HCT-8, 96 h
[4] = tested on: H22; assay: Antitumor activity against mouse H22 cells implanted in Kunming mouse assessed as tumor growth inhibition at 40 mg/kg, ip administered on day 1 and day 5 relative to control relative to control; format: functional; details: read-out: TGI
[5] = tested on: H22; assay: Antitumor activity against mouse H22 cells implanted in Kunming mouse assessed as tumor growth inhibition at 100 mg/kg, ip administered once relative to control; format: functional; details: read-out: TGI
[6] = tested on: H22; assay: Antitumor activity against mouse H22 cells implanted in Kunming mouse assessed as tumor growth inhibition at 60 mg/kg, ip administered twice relative to control; format: functional; details: read-out: TGI
[7] = tested on: BGC-823; assay: Antitumor activity against human BGC823 cells xenografted in BALB/c nude mouse assessed as tumor growth inhibition at 30 mg/kg, ip administered once in a week for two weeks starting from 6 days post tumor transplantation measured 27 to 30 days post tumor transplantation relative to control; format: functional; details: BGC-823, ip, read-out: TGI
[8] = tested on: BGC-823; assay: Antitumor activity against human BGC823 cells xenografted in BALB/c nude mouse assessed as tumor volume at 60 mg/kg, ip administered once in a week for two weeks starting from 6 days post tumor transplantation measured 27 to 30 days post tumor transplantation relative to control; format: functional
[9] = tested on: Escherichia coli; assay: Inhibition of Escherichia coli topoisomerase 1-mediated relaxation of supercoiled Pcmv-6 plasmid DNA at 30 to 50 uM after 30 mins by ethidium bromide staining based agarose gel electrophoretic analysis
[10] = tested on: A549; assay: Induction of apoptosis in human A549 cells assessed as necrotic cells at 8 nM after 24 hrs by Annexin V-FITC/propidium iodide staining based flow cytometry (reference value: 7.62%); format: functional
[11] = tested on: A549; assay: Induction of apoptosis in human A549 cells assessed as late apoptotic cells at 8 nM after 24 hrs by Annexin V-FITC/propidium iodide staining based flow cytometry (reference value: 2.47%); format: functional
[12] = tested on: A549; assay: Induction of apoptosis in human A549 cells assessed as early apoptotic cells at 8 nM after 24 hrs by Annexin V-FITC/propidium iodide staining based flow cytometry (reference value: 0.50%); format: functional
[13] = tested on: A549; assay: Induction of apoptosis in human A549 cells assessed as viable cells at 8 nM after 24 hrs by Annexin V-FITC/propidium iodide staining based flow cytometry (reference value: 89.41%); format: functional; details: A549, 24 h, read-out: Activity
[14] = tested on: A549; assay: Cell cycle arrest in human A549 cells assessed as accumulation at S phase at 8 nM after 24 hrs by propidium iodide staining based flow cytometry (reference value: 32.80%); format: functional
[15] = tested on: A549; assay: Cell cycle arrest in human A549 cells assessed as accumulation at G0/G1 phase at 75 nM after 24 hrs by propidium iodide staining based flow cytometry (reference value: 58.84%); format: functional
[16] = tested on: A549; assay: Cell cycle arrest in human A549 cells assessed as accumulation at S phase at 75 nM after 24 hrs by propidium iodide staining based flow cytometry (reference value: 32.80%); format: functional
[17] = tested on: A549; assay: Cell cycle arrest in human A549 cells assessed as accumulation at G2/M phase at 75 nM after 24 hrs by propidium iodide staining based flow cytometry (reference value: 8.36%); format: functional
[18] = tested on: A549; assay: Induction of apoptosis in human A549 cells assessed as necrotic cells at 25 nM after 24 hrs by Annexin V-FITC/propidium iodide staining based flow cytometry (reference value: 7.62%); format: functional
[19] = tested on: A549; assay: Induction of apoptosis in human A549 cells assessed as decrease in Bcl-2 protein level at 8 to 75 nM by Western blot method; format: functional, cell-based
[20] = tested on: A549; assay: Induction of apoptosis in human A549 cells assessed as increase in Bax protein level at 8 to 75 nM by Western blot method; format: functional, cell-based
[21] = tested on: Mus musculus; assay: Toxicity in BALB/c nude mouse xenografted with human Bel7402 cells assessed as body weight at 60 mg/kg, ip aadministered once in a week for two weeks starting from 6 days post tumor transplantation measured every 3 days for 21 days (reference value: 14.5 g); format: organism-based; details: in vivo, 504 h
[22] = tested on: Mus musculus; assay: Toxicity in BALB/c nude mouse xenografted with human Bel7402 cells assessed as body weight at 30 mg/kg, ip administered once in a week for two weeks starting from 6 days post tumor transplantation measured every 3 days for 21 days (reference value: 14.5 g); format: organism-based; details: in vivo, 504 h
[23] = tested on: Bel-7402; assay: Antitumor activity against human Bel7402 cells xenografted in BALB/c nude mouse assessed as tumor growth inhibition at 30 mg/kg, ip administered once in a week for two weeks starting from 6 days post tumor transplantation measured 27 to 30 days post tumor transplantation relative to control; format: functional; details: Bel-7402, ip, read-out: TGI
[24] = tested on: Mus musculus; assay: Toxicity in Kunming mouse implanted with mouse H22 cells assessed as survival at 60 mg/kg, ip administered twice; format: organism-based; details: in vivo
[25] = tested on: Mus musculus; assay: Toxicity in BALB/c nude mouse xenografted with human BGC823 cells assessed as mouse survival at 60 mg/kg, ip administered once in a week for two weeks starting from 6 days post tumor transplantation; format: organism-based; details: in vivo, 144 h
[26] = tested on: Mus musculus; assay: Toxicity in BALB/c nude mouse xenografted with human BGC823 cells assessed as mouse survival at 30 mg/kg, ip administered once in a week for two weeks starting from 6 days post tumor transplantation; format: organism-based; details: in vivo, 144 h
[27] = tested on: Mus musculus; assay: Antitumor activity in BALB/c nude mouse xenografted with human Bel7402 cells assessed as tumor volume at 60 mg/kg, ip administered once in a week for two weeks starting from 6 days post tumor transplantation measured every 3 days for 21 days (reference value: […]); details: in vivo, 504 h
[28] = tested on: Mus musculus; assay: Toxicity in BALB/c nude mouse xenografted with human BGC823 cells assessed as tumor volume at 60 mg/kg, ip administered once in a week for two weeks starting from 6 days post tumor transplantation and measured every 3 days during compound dosing for 15 days (reference value: […]); details: in vivo, 360 h

With `CCc1c2c(nc3ccccc13)-c1cc3c(c(=O)n1C2)COC(=O)[C@@]3(CC)OC(=O)Cn1cc(F)c(=O)[nH]c1=O` the IC50 [1] was 14 nM, the IC50 [2] was 32 nM and the IC50 [3] was 7 nM. For the same compound, the inhibition in vivo at 40 mg/kg [4] was 57.5%, the inhibition in vivo at 100 mg/kg [5] was 39.1% and the inhibition in vivo at 60 mg/kg [6] was 64.5%. The inhibition in vivo at 30 mg/kg [7] was 89.7%, the T/C [8] was 5.54% and the inhibition [9] was “Active”. For the same compound, the Activity [10] was 3.74%, the Activity [11] was 13.06% and the Activity [12] was 3%. It also gave a viability at 0.008 µM [13] of 80.2%, an Activity [14] of 36.5% and an Activity [15] of 2.17%. It also gave an Activity [16] of 30.76%, an Activity [17] of 67.07% and an Activity [18] of 9.9%. The Activity [19] was “Active”, the Activity [20] was “Active” and the Activity [21] was “Non-Toxic”. For the same compound, the Activity [22] was “Non-Toxic”, the inhibition in vivo at 30 mg/kg [23] was 62.6% and the Activity [24] was “Non-Toxic”. For the same compound, the Activity [25] was “Non-Toxic”, the Activity [26] was “Non-Toxic” and the tumor volume [27] was 127 mm³. For the same compound, the tumor volume [28] was 143 mm³.
